# Source: patent US20260294769A1, “ASCORBIC ACID DERIVATIVES AND COSMETIC THEREOF” (SEIWA KASEI COMPANY, LIMITED, priority 2023, published 2026)
# Legend:
# [1] = Stability Test-2: odor of cream stored at 50° C.; format: physicochemical; settings: 10 panelists
# Description: • Evaluation was made by 10 panelists according to the following criteria. • 3: Almost odorless. • 2: There is a slight strange odor. • 1: A strong odor is detected. • Based on the results of the above evaluation, the following classification was made: • ◯: Total score of 10 panelists is 25 or more • Δ: Total score of 10 panelists is 16-24 • x: The total score of 10 panelists is 15 or less
# (§1) For each of the samples of Synthesis Examples 9 to 32, (a) and (b) shown in Table 12 were each heated and mixed. After cooling, (c) shown in Table 12 was added to prepare a cream with a pH of 7 or 9. […] The odor and coloration were also evaluated according to the same method and criteria as in Test Example 1. The results regarding the residual rate are shown in Tables 13 and 14, and the results regarding the odor and coloration are shown in Tables 15 and 16.
# [2] = Stability Test-2: residual rate in cream of pH 7 or 9 stored at 50° C.; format: physicochemical
# Description: as §1
# [3] = Stability Test-2: coloration of cream stored at 50° C.; format: physicochemical; settings: 10 panelists
# Description: • Evaluation was made by 10 panelists according to the following criteria. • 3: Almost no change compared to immediately after preparation. • 2: Color changes compared to immediately after preparation. • 1: Strongly colored compared to immediately after preparation. • Based on the results of the above evaluation, the following classification was made:
# as §1
# [4] = system: Normal human dermal fibroblasts (NHDF); test: Hyaluronic acid production promoting effect (ELISA of hyaluronic acid in supernatant); format: cell-based; settings: 10 mM or less, 48 hours, control group set to 100%, N=3
# Description: Normal human dermal fibroblasts (NHDF) were prepared in D-MEM containing 5% (v/v) fetal bovine serum to a cell density of 2.5×10^4 cells/well, and then pre-incubated on a 96-well plate for 24 hours. After removing the medium, samples prepared in serum-free D-MEM were added to each well and cultured for 48 hours. After the culture was completed, the amount of hyaluronic acid in the supernatant was quantified by ELISA. Measurements were performed in triplicate (N=3).
# The amount of hyaluronic acid produced when the sample was measured at a concentration of 10 mM or less was compared with that of the control group, and the results (% values when the control group is set to 100%) are shown in Tables 18 to 20 based on the following criteria.
# [5] = cream pH 7, 50° C., after 2 weeks, 20160 min
# [6] = cream pH 7, 50° C., after 4 weeks, 40320 min
# [7] = cream pH 9, 50° C., after 2 weeks, 20160 min
# [8] = cream pH 9, 50° C., after 4 weeks, 40320 min
SMILES,Odor ([1]; after 2 weeks),Odor ([1]; after 4 weeks),"Residual Rate [2, 5]","Residual Rate [2, 6]","Residual Rate [2, 7]","Residual Rate [2, 8]",Coloration ([3]; after 2 weeks),Coloration ([3]; after 4 weeks),Hyaluronic acid production-promoting effect [4]
"CCCC(=O)OCC(O)C1OC(=O)C2=C1OCCCO2 (stereo not shown) [Synthesis Example 20, 6-O-butanoyl-2,3-O-(1,3-propanediyl) ascorbic acid]",◯ (Total score of 10 panelists is 25 or more),Δ (Total score of 10 panelists is 16-24),⊚ (95% or more),⊚ (95% or more),⊚ (95% or more),⊚ (95% or more),◯ (Total score of 10 panelists is 25 or more),◯ (Total score of 10 panelists is 25 or more),++ (120%<)
"CCCCCCCCCCCCCCCC(=O)OCC(O)C1OC(=O)C2=C1OCCCO2 (stereo not shown) [Synthesis Example 26, 6-O-palmitoyl-2,3-O-(1,3-propanediyl) ascorbic acid]",◯ (Total score of 10 panelists is 25 or more),Δ (Total score of 10 panelists is 16-24),⊚ (95% or more),⊚ (95% or more),⊚ (95% or more),"◯ (85% or more, less than 95%)",◯ (Total score of 10 panelists is 25 or more),Δ (Total score of 10 panelists is 16-24),++ (120%<)
"CCCCCCCCCCCCCCCC(=O)OCC(OC(=O)CCCCCCCCCCCCCCC)C1OC(=O)C2=C1OCCCCO2 (stereo not shown) [Synthesis Example 16, 5,6-O-dipalmitoyl-2,3-O-(1,4-butanediyl) ascorbic acid]",◯ (Total score of 10 panelists is 25 or more),Δ (Total score of 10 panelists is 16-24),⊚ (95% or more),⊚ (95% or more),⊚ (95% or more),⊚ (95% or more),◯ (Total score of 10 panelists is 25 or more),◯ (Total score of 10 panelists is 25 or more),++ (120%<)
"CCCCCCCCCCCC(=O)OCC(O)C1OC(=O)C2=C1OCCCO2 (stereo not shown) [Synthesis Example 24, 6-O-lauroyl-2,3-O-(1,3-propanediyl) ascorbic acid]",◯ (Total score of 10 panelists is 25 or more),Δ (Total score of 10 panelists is 16-24),⊚ (95% or more),⊚ (95% or more),⊚ (95% or more),⊚ (95% or more),◯ (Total score of 10 panelists is 25 or more),◯ (Total score of 10 panelists is 25 or more),++ (120%<)
"CCCC(=O)OCC(O)C1OC(=O)C2=C1OCCCCO2 (stereo not shown) [Synthesis Example 9, 6-O-butanoyl-2,3-O-(1,4-butanediyl) ascorbic acid]",◯ (Total score of 10 panelists is 25 or more),Δ (Total score of 10 panelists is 16-24),⊚ (95% or more),⊚ (95% or more),⊚ (95% or more),⊚ (95% or more),◯ (Total score of 10 panelists is 25 or more),◯ (Total score of 10 panelists is 25 or more),++ (120%<)
"CCCCCCCCCCCCCCCC(=O)OC[C@H](O)[C@H]1OC(=O)C(OP(=O)(O)O)=C1O [Ascorbyl phosphate 3Na palmitate, reference compound]",–,–,–,–,–,–,–,–,± (<100%)
"O=C1OC(C2COC(c3ccccc3)O2)C2=C1OCCCO2 (stereo not shown) [Synthesis Example 38, 5,6-O-(phenylmethylene)-2,3-O-(1,3-propanediyl) ascorbic acid]",–,–,–,–,–,–,–,–,++ (120%<)
"CC(C)CCCCCCCCCCCCCCC(=O)OC[C@H](OC(=O)CCCCCCCCCCCCCCC(C)C)[C@H]1OC(=O)C2=C1OCCCCO2 [Synthesis Example 18, 5,6-O-diisostearoyl-2,3-O-(1,4-butanediyl) ascorbic acid]",◯ (Total score of 10 panelists is 25 or more),Δ (Total score of 10 panelists is 16-24),⊚ (95% or more),⊚ (95% or more),⊚ (95% or more),⊚ (95% or more),◯ (Total score of 10 panelists is 25 or more),◯ (Total score of 10 panelists is 25 or more),++ (120%<)
"CC1(C)OCC(C2OC(=O)C3=C2OCCCCO3)O1 (stereo not shown) [Synthesis Example 35, 5,6-O-isopropylidene-2,3-O-(1,4-butanediyl) ascorbic acid]",–,–,–,–,–,–,–,–,++ (120%<)
"CCCCCCCC(=O)OCC(O)C1OC(=O)C2=C1OCCCO2 (stereo not shown) [Synthesis Example 22, 6-O-octanoyl-2,3-O-(1,3-propanediyl) ascorbic acid]",◯ (Total score of 10 panelists is 25 or more),Δ (Total score of 10 panelists is 16-24),⊚ (95% or more),⊚ (95% or more),⊚ (95% or more),⊚ (95% or more),◯ (Total score of 10 panelists is 25 or more),◯ (Total score of 10 panelists is 25 or more),++ (120%<)
"CC(C)CCCCCCCCCCCCCCC(=O)OCC(O)C1OC(=O)C2=C1OCCO2 (stereo not shown) [Synthesis Example 31, 6-O-isostearoyl-2,3-O-(1,2-ethanediyl) ascorbic acid]",◯ (Total score of 10 panelists is 25 or more),Δ (Total score of 10 panelists is 16-24),⊚ (95% or more),⊚ (95% or more),⊚ (95% or more),⊚ (95% or more),◯ (Total score of 10 panelists is 25 or more),◯ (Total score of 10 panelists is 25 or more),++ (120%<)
"CCCCCCCC(=O)OCC(O)C1OC(=O)C2=C1OCCCCO2 (stereo not shown) [Synthesis Example 11, 6-O-octanoyl-2,3-O-(1,4-butanediyl) ascorbic acid]",◯ (Total score of 10 panelists is 25 or more),Δ (Total score of 10 panelists is 16-24),⊚ (95% or more),⊚ (95% or more),⊚ (95% or more),"∘ (85% or more, less than 95%)",◯ (Total score of 10 panelists is 25 or more),◯ (Total score of 10 panelists is 25 or more),++ (120%<)
"CCCCCCCCCCCC(=O)OCC(OC(=O)CCCCCCCCCCC)C1OC(=O)C2=C1OCCCO2 (stereo not shown) [Synthesis Example 25, 5,6-O-dilauroyl-2,3-O-(1,3-propanediyl) ascorbic acid]",◯ (Total score of 10 panelists is 25 or more),Δ (Total score of 10 panelists is 16-24),⊚ (95% or more),⊚ (95% or more),⊚ (95% or more),⊚ (95% or more),◯ (Total score of 10 panelists is 25 or more),Δ (Total score of 10 panelists is 16-24),++ (120%<)
"CC1(C)OCC(C2OC(=O)C3=C2OCCCO3)O1 (stereo not shown) [Synthesis Example 36, 5,6-O-isopropylidene-2,3-O-(1,3-propanediyl) ascorbic acid]",–,–,–,–,–,–,–,–,++ (120%<)
